We go through five molecules from PubChem BioAssay AID2060331 (Molecular Pharmacology Branch, DTP, NCI, 2025).

The test system of the test is Hs578T multi-cell spheroids, viability. The test is described as follows: Anticancer human tumor Hs578T cell line growth inhibition [IpAb].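 For all read-outs here: drug exposure lasted 7 days before readout.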 As to conditions: for viability, T/C: stronger effect = lower value. In outline: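 Combinations with ipatasertib or abemaciclib were tested on tumour spheroids holding HUVEC (25%) and MSC (15%) alongside 60% malignant cells. Top concentration was at or near clinical Cmax (10 microM if undefined), descending in half-log steps.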

The mark [1] stands for this setting: curve of first compound, second compound 0.1 µM.
Setting [2] is: curve of first compound, second compound 0.316 µM.
Setting [3] is: curve of first compound, second compound 1 µM.

“And” between values parts separate entries of the source, which are not always exact repeats. Equal entries are not always repeated.

As a reminder, the IC50 is the midpoint of a concentration-inhibition curve. One may read the viability, T/C as the ratio of treated to control. For the molecule `CC(C)(C)c1cnc(CSc2cnc(NC(=O)C3CCNCC3)s2)o1` + CC(C)NCC(C(=O)N1CCN(c2ncnc3c2C(C)CC3O)CC1)c1ccc(Cl)cc1, the IC50 is, setting by setting: under setting [1], 180 nM; under setting [2], 173 nM; under setting [3], 156 nM; (curve of first compound, second compound 3.16 µM) 108 nM; (curve of first compound, second compound 10 µM) 33.3 nM. Besides, the viability, T/C is, setting by setting: (second compound 0.1 µM, first compound 0.00949 µM) 104%; (second compound 0.1 µM, first compound 0.03 µM) 114%; (second compound 0.1 µM, first compound 0.0949 µM) 109%; (second compound 0.1 µM, first compound 0.3 µM) 2.64%; (second compound 0.1 µM, first compound 0.949 µM) 2.52%; (second compound 0.1 µM, first compound 3 µM) 3.3%. In addition, the viability, T/C (second compound 0.316 µM, first compound 0.00949 µM) is 93.5%; the viability, T/C (second compound 0.316 µM, first compound 0.03 µM) was 104%; the viability, T/C (second compound 0.316 µM, first compound 0.0949 µM) is 107%; the viability, T/C (second compound 0.316 µM, first compound 0.3 µM) was 2.26%; the viability, T/C (second compound 0.316 µM, first compound 0.949 µM) was 2.29%; the viability, T/C (second compound 0.316 µM, first compound 3 µM) is 2.23%. For the same molecule, the viability, T/C (second compound 1 µM, first compound 0.00949 µM) is 80.7%; the viability, T/C (second compound 1 µM, first compound 0.03 µM) was 88.7%; the viability, T/C (second compound 1 µM, first compound 0.0949 µM) was 89.5%; the viability, T/C (second compound 1 µM, first compound 0.3 µM) was 2.31%; the viability, T/C (second compound 1 µM, first compound 0.949 µM) is 2.45%; the viability, T/C (second compound 1 µM, first compound 3 µM) was 2.32%. In addition, the viability, T/C is, setting by setting: (second compound 3.16 µM, first compound 0.00949 µM) 60.5%; (second compound 3.16 µM, first compound 0.03 µM) 69.6%; (second compound 3.16 µM, first compound 0.0949 µM) 56.1%; (second compound 3.16 µM, first compound 0.3 µM) 2.25%; (second compound 3.16 µM, first compound 0.949 µM) 3.36%; (second compound 3.16 µM, first compound 3 µM) 3.32%. Moreover, the viability, T/C (second compound 10 µM, first compound 0.00949 µM) is 49.3%; the viability, T/C (second compound 10 µM, first compound 0.03 µM) is 57.7%; the viability, T/C (second compound 10 µM, first compound 0.0949 µM) is 14.8%; the viability, T/C (second compound 10 µM, first compound 0.3 µM) is 1.74%; the viability, T/C (second compound 10 µM, first compound 0.949 µM) is 2.09%; the viability, T/C (second compound 10 µM, first compound 3 µM) was 2.94%.

On to `Cn1nccc1Nc1nccc(-c2ccn(C(CO)c3ccc(Cl)c(F)c3)c(=O)c2)n1` (stereo not given), for which the viability, T/C by setting is: (compound 0.0316 µM) 104% and 107%; (compound 0.1 µM) 114% and 115%; (compound 0.316 µM) 118% and 128%; (compound 1 µM) 90.7% and 94%; (compound 3.16 µM) 70.3% and 65.2%; (compound 10 µM) 24.4% and 35.9%. Also, the IC50 (curve of compound) was 5130 nM and 5580 nM.

As to `CCN1CCN(Cc2ccc(Nc3ncc(F)c(-c4cc(F)c5nc(C)n(C(C)C)c5c4)n3)nc2)CC1`, the viability, T/C (compound 0.01 µM) is 97.2% [middle of 13 runs]; the viability, T/C (compound 0.0316 µM) is 90.4% [middle of 13 runs]; the viability, T/C (compound 0.1 µM) is 83.7% [middle of 13 runs]; the viability, T/C (compound 0.316 µM) was 83.3% [middle of 13 runs]; the viability, T/C (compound 1 µM) is 94.2% [middle of 13 runs]. The concentration for half-maximal inhibition (IC50) (compound alone, run of 06/01/2021) was greater than 1000 nM.

As for `Cn1cnc2c(F)c(Nc3ccc(Br)cc3Cl)c(C(=O)NOCCO)cc21`, the viability, T/C is, setting by setting: (compound 0.00949 µM) 102% and 100%; (compound 0.03 µM) 104% and 97.5%; (compound 0.0949 µM) 104% and 96%; (compound 0.3 µM) 89.2% and 88.1%; (compound 0.949 µM) 79.1% and 75%; (compound 3 µM) 56.1% and 48.7%. Also, the IC50 (curve of compound) was > 3000 nM and 2850 nM.

Turning to `Cn1nccc1Nc1nccc(-c2ccn(C(CO)c3ccc(Cl)c(F)c3)c(=O)c2)n1` (stereo not given) + CCN1CCN(Cc2ccc(Nc3ncc(F)c(-c4cc(F)c5nc(C)n(C(C)C)c5c4)n3)nc2)CC1, the IC50 runs as follows: (curve of first compound, second compound 0.01 µM) 5690 nM; (curve of first compound, second compound 0.0316 µM) 4080 nM; under setting [1], 3490 nM; under setting [2], 6160 nM; under setting [3], 2060 nM. The viability, T/C runs as follows: (second compound 0.01 µM, first compound 0.0316 µM) 100%; (second compound 0.01 µM, first compound 0.1 µM) 109%; (second compound 0.01 µM, first compound 0.316 µM) 110%; (second compound 0.01 µM, first compound 1 µM) 88.8%; (second compound 0.01 µM, first compound 3.16 µM) 64.1%; (second compound 0.01 µM, first compound 10 µM) 37.3%. The viability, T/C runs as follows: (second compound 0.0316 µM, first compound 0.0316 µM) 92.2%; (second compound 0.0316 µM, first compound 0.1 µM) 99.8%; (second compound 0.0316 µM, first compound 0.316 µM) 96.3%; (second compound 0.0316 µM, first compound 1 µM) 73.5%; (second compound 0.0316 µM, first compound 3.16 µM) 61.6%; (second compound 0.0316 µM, first compound 10 µM) 18.1%. Also, the viability, T/C (second compound 0.1 µM, first compound 0.0316 µM) is 79.2%; the viability, T/C (second compound 0.1 µM, first compound 0.1 µM) is 86.7%; the viability, T/C (second compound 0.1 µM, first compound 0.316 µM) is 88.6%; the viability, T/C (second compound 0.1 µM, first compound 1 µM) was 59.6%; the viability, T/C (second compound 0.1 µM, first compound 3.16 µM) is 56.5%; the viability, T/C (second compound 0.1 µM, first compound 10 µM) is 27.6%. For the same molecule, the viability, T/C runs as follows: (second compound 0.316 µM, first compound 0.0316 µM) 79%; (second compound 0.316 µM, first compound 0.1 µM) 86.3%; (second compound 0.316 µM, first compound 0.316 µM) 86%; (second compound 0.316 µM, first compound 1 µM) 71.3%; (second compound 0.316 µM, first compound 3.16 µM) 63.8%; (second compound 0.316 µM, first compound 10 µM) 40.2%. In addition, the viability, T/C (second compound 1 µM, first compound 0.0316 µM) was 81.8%; the viability, T/C (second compound 1 µM, first compound 0.1 µM) is 79.7%; the viability, T/C (second compound 1 µM, first compound 0.316 µM) is 85.5%; the viability, T/C (second compound 1 µM, first compound 1 µM) is 58.8%; the viability, T/C (second compound 1 µM, first compound 3.16 µM) was 50.4%; the viability, T/C (second compound 1 µM, first compound 10 µM) was 39.2%.
